Where a name gives a salt, the structure may show the parent alone.
How the values were obtained:
[1] = in water at 20° C.; cited from earlier work
Parkinson's disease [2] = conditions: statement in words; cited from earlier work
rabbits = assay: Skin irritation study in rabbits, modified Draize irritation protocol; format: in vivo, rabbit; conditions: conclusion in words from Table 4
Protocol: The skin irritation study in rabbits using a modified Draize irritation protocol. The treatments included:
1) different activities of ropinirole in the selected vehicle that gave the highest flux of ropinirole slat; and
2) ropinirole in two selected vehicles. A proprietary vehicle that has been used in skin flux studies were tested as a control.
Mineral oil was used as the negative control in the study. The mean primary irritation score for each treatment was calculated.
3) ropinirole and base in three prototype systems (36048C, 36047G and 36040F; see Table 4 in Example 3, below).
Various ropinirole formulations were prepared and irritation studies conducted as described above.

dopamine D2 = conditions: versus bromocriptine and pergolide; cited from earlier work
Parkinson's disease [3] = conditions: patients undergoing treatment with L-Dopa; cited from earlier work

SMILES: CCCN(CCC)CCc1cccc2c1CC(=O)N2 [Ropinirole hydrochloride]
- solubility [1]: 133 mg/mL

SMILES: CCCN(CCC)CCc1cccc2c1CC(=O)N2 [ropinirole, 4-[2-(dipropylamino)ethyl]-1,3-dihydro-2H-indol-2-one]
- effectiveness in the treatment of Parkinson's disease (Parkinson's disease [2]): effective in the treatment of Parkinson's disease
- irritation encountered upon transdermal administration (rabbits): minimal
- specificity as dopamine D2 agonist (dopamine D2): more specific dopamine D2 agonist than other dopamine agonists such as bromocriptine and pergolide

SMILES: N[C@@H](Cc1ccc(O)c(O)c1)C(=O)O [L-Dopa]
- therapeutic response fluctuations (Parkinson's disease [3]): severe therapeutic response fluctuations

— US5807570A, “Transdermal administration of ropinirole and analogs thereof” (priority 1996, dated 1998)
